The source made the active and inactive calls. No cut-off for these calls is given here.
Columns and labels:
[1] = test system: A549; test: Cell cycle arrest in human A549 cells assessed as accumulation at G2/M phase at 1 uM after 24 hrs by propidium iodide staining-based flow cytometric analysis (reference value: 16.5%); assay type: functional
[2] = Cytotoxicity against human HCT116 cells assessed as growth inhibition after 72 hrs by CellTiter 96 Aqueous one solution cell proliferation assay; assay type: functional, cell-based; details: HCT-116, 72 h
[3] = test system: NCI-H460; test: Cytotoxicity against human NCI-H460 cells assessed as growth inhibition after 72 hrs by CellTiter 96 Aqueous one solution cell proliferation assay; assay type: functional, cell-based; details: NCI-H460, 72 h
[4] = Cytotoxicity against human PC3 cells assessed as growth inhibition after 72 hrs by CellTiter 96 Aqueous one solution cell proliferation assay; assay type: functional, cell-based; details: PC-3, 72 h
[5] = test system: A549; test: Cell cycle arrest in human A549 cells assessed as accumulation at G1 phase at 3 uM after 24 hrs by propidium iodide staining-based flow cytometric analysis (reference value: 75.9%); assay type: functional
[6] = test system: MCF7; test: Cytotoxicity against human MCF7 cells assessed as growth inhibition after 72 hrs by CellTiter 96 Aqueous one solution cell proliferation assay; assay type: functional, cell-based; details: MCF7, 72 h
[7] = test system: A549; test: Cell cycle arrest in human A549 cells assessed as accumulation at G2/M phase at 0.3 uM after 24 hrs by propidium iodide staining-based flow cytometric analysis (reference value: 16.5%); assay type: functional
[8] = test system: A549; test: Cell cycle arrest in human A549 cells assessed as accumulation at G1 phase at 1 uM after 24 hrs by propidium iodide staining-based flow cytometric analysis (reference value: 75.9%); assay type: functional
[9] = test system: A549; test: Cell cycle arrest in human A549 cells assessed as accumulation at G1 phase at 0.3 uM after 24 hrs by propidium iodide staining-based flow cytometric analysis (reference value: 75.9%); assay type: functional
[10] = test system: A549; test: Cytotoxicity against human A549 cells assessed as growth inhibition after 72 hrs by CellTiter 96 Aqueous one solution cell proliferation assay; assay type: functional, cell-based; details: for IC50: A549, 72 h
[11] = test system: A549; test: Cell cycle arrest in human A549 cells assessed as accumulation at G2/M phase at 3 uM after 24 hrs by propidium iodide staining-based flow cytometric analysis (reference value: 16.5%); assay type: functional
[12] = test system: HeLa; test: Cytotoxicity against human HeLa cells assessed as growth inhibition after 72 hrs by CellTiter 96 Aqueous one solution cell proliferation assay; assay type: functional, cell-based
[13] = target: T1, Tubulin (Homo sapiens) (UniProt P68371+Q9H4B7+P0DPH7+P68366+Q13509+Q71U36+P04350+Q3ZCM7+P07437+P68363+Q9BQE3+Q6PEY2+Q13885+Q9BVA1+Q9BUF5); test: Displacement of colchicine from tubulin (unknown origin) preincubated for 30 mins followed by colchicine addition measured after 30 mins by fluorescence assay; assay type: protein-complex assay
[14] = test system: A549; test: Cell cycle arrest in human A549 cells assessed as accumulation at G2/M phase after 24 hrs by propidium iodide staining-based flow cytometric analysis; assay type: functional
[15] = test system: A549; test: Induction of microtubule destabilization in human A549 cells at 4 uM by DAPI-staining-based fluorescence microscopic analysis; assay type: cell-based
[16] = target: T1, Tubulin (Homo sapiens); test: Inhibition of tubulin (unknown origin) polymerization at 3 to 10 uM by fluorescence assay; assay type: protein-complex assay
[17] = test system: A549; test: Induction of microtubule destabilization in human A549 cells at 45 nM by DAPI-staining-based fluorescence microscopic analysis; assay type: cell-based
[18] = target: T1, Tubulin (Homo sapiens); details: 45 uM
Description: Displacement of colchicine from tubulin (unknown origin) at 45 uM preincubated for 30 mins followed by colchicine addition measured after 30 mins by fluorescence assay

[19] = target: T1, Tubulin (Homo sapiens); test: Inhibition of tubulin (unknown origin) polymerization at 10 uM by fluorescence assay; assay type: protein-complex assay

`COc1ccc(C(C)(O)c2ncnc3ccccc23)cc1` (racemic) [listing 1 of 2 here] gave an Activity [1] of 68.6%, an IC50 [2] of 100 nM and an IC50 [3] of 100 nM. For the same molecule, the IC50 [4] was 100 nM, the Activity [5] was 18.3% and the IC50 [6] was 100 nM. It also gave an Activity [7] of 35.3%, an Activity [8] of 23.7% and an Activity [9] of 56.9%. For the same molecule, the IC50 [10] was 270 nM, the Activity [11] was 75.9% and the IC50 [12] was 100 nM.

Molecule `COc1ccc(C(C)(O)c2nc(-c3ccccc3Cl)nc3ccccc23)cc1` (configuration not stated) has an IC50 [10] of 780 nM.

`C=CCOc1nc(C(C)(O)c2ccc(OC)cc2)c2ccccc2n1` (configuration not stated) showed an IC50 [10] of 410 nM.

Molecule `CC(O)(c1ccc(Cl)cc1)c1ncnc2ccccc12` (configuration not stated) has an IC50 [10] greater than 25000 nM.

`CC(O)(c1cccc(O)c1)c1ncnc2ccccc12` (configuration not stated) gave an IC50 [10] greater than 25000 nM.

In the case of `COc1ccc(C(C)(O)c2nc(N(C)C)nc3ccccc23)cc1` (configuration not stated), the IC50 [10] is reported as 210 nM.

With `COc1ccc(C(C)(O)c2nc(N3CCN(c4ccc(F)cc4)CC3)nc3ccccc23)cc1` (configuration not stated) the IC50 [10] was 1900 nM.

With `CC[C@]1(O)C[C@@H]2CN(CCc3c([nH]c4ccccc34)[C@@](C(=O)OC)(c3cc4c(cc3OC)N(C)[C@H]3[C@@](O)(C(=O)OC)[C@H](OC(C)=O)[C@]5(CC)C=CCN6CC[C@]43[C@@H]65)C2)C1` the inhibition [13] was “inactive”.

In the case of `COc1ccc(C(C)(O)c2ncnc3ccccc23)cc1` (racemic) [listing 2 of 2 here], the Activity [14] is reported as “Dose-dependent effect”, the inhibition [13] is reported as “Dose-dependent effect” and the Activity [15] is reported as “Active”. For the same molecule, the inhibition [16] was “Active”.

Work on `CCCOc1nc(C(C)(O)c2ccc(OC)cc2)c2ccccc2n1` (configuration not stated) yielded an IC50 [10] of 1200 nM.

For `COc1cc2c(c(OC)c1OC)-c1ccc(OC)c(=O)cc1[C@@H](NC(C)=O)CC2`, the Activity [17] was “Active”.

For `COC(=O)Nc1nc2cc(C(=O)c3cccs3)ccc2[nH]1`, the inhibition [18] was “Active”.

For `COc1ccc(C(C)(O)c2ncnc3ccccc23)cc1OC` (configuration not stated), the IC50 [10] was 21000 nM.

`COc1ccc(C(O)(Cc2ccccc2)c2ncnc3ccccc23)cc1` (configuration not stated) showed an IC50 [10] of 9800 nM.

`COc1ccc(C(C)(O)c2nc(-c3ccc(Cl)cc3)nc3ccccc23)cc1` (configuration not stated) gave an IC50 [10] of 400 nM.

In the case of `CCOc1ccc(C(C)(O)c2ncnc3ccccc23)cc1` (configuration not stated), the IC50 [10] is reported as 300 nM.

Work on `CC(O)(c1cccc(OCc2ccccc2)c1)c1ncnc2ccccc12` (configuration not stated) yielded an IC50 [10] greater than 25000 nM.

Work on `CCOc1nc(C(C)(O)c2ccc(OC)cc2)c2ccccc2n1` (configuration not stated) yielded an IC50 [10] of 340 nM.

`COc1cc(C(C)(O)c2ncnc3ccccc23)cc(OC)c1OC` (configuration not stated) gave an IC50 [10] greater than 25000 nM.

`COc1ccc(C(C)(O)c2nc(N3CCOCC3)nc3ccccc23)cc1` (configuration not stated) showed an IC50 [10] of 170 nM.

Molecule `COc1ccc(C(O)(c2ncnc3ccccc23)C(F)(F)F)cc1` (configuration not stated) has an IC50 [10] of 1100 nM.

`COc1ccc(C(=O)c2ncnc3ccccc23)cc1` gave an IC50 [10] of 20000 nM.

Molecule `CC(O)(c1ccccc1)c1ncnc2ccccc12` (configuration not stated) has an IC50 [10] greater than 25000 nM.

For `CCC(O)(c1ccc(OC)cc1)c1ncnc2ccccc12` (configuration not stated), the IC50 [10] was 1800 nM.

With `COc1ccc(C(C)(O)c2nc(-c3ccccc3)nc3ccccc23)cc1` (configuration not stated) the IC50 [10] was 100 nM and the inhibition [19] was “Active”.

In the case of `COc1cccc(C(C)(O)c2ncnc3ccccc23)c1` (configuration not stated), the IC50 [10] is reported as greater than 25000 nM.

With `CC(O)(c1ccc(OC(F)(F)F)cc1)c1ncnc2ccccc12` (configuration not stated) the IC50 [10] was greater than 25000 nM.

Work on `CSc1ccc(C(C)(O)c2ncnc3ccccc23)cc1` (configuration not stated) yielded an IC50 [10] of 340 nM.

Molecule `CN(C)c1ccc(C(C)(O)c2ncnc3ccccc23)cc1` (configuration not stated) has an IC50 [10] of 1300 nM.

In the case of `COc1ccc(C(C)(O)c2nc(N3CCCCC3)nc3ccccc23)cc1` (configuration not stated), the IC50 [10] is reported as 2700 nM.

With `COc1ccc(C(C)(O)c2nc(Nc3ccccc3)nc3ccccc23)cc1` (configuration not stated) the IC50 [10] was 2700 nM.

Work on `COc1ccc(C(C)(O)c2nc(Oc3ccccc3)nc3ccccc23)cc1` (configuration not stated) yielded an IC50 [10] of 3300 nM.

`COc1ccc(C(C)(O)c2nc(-c3ccsc3)nc3ccccc23)cc1` (configuration not stated) gave an IC50 [10] of 35 nM.

In the case of `COc1ccc(C(C)(O)c2nc(C(Cl)(Cl)Cl)nc3ccccc23)cc1` (configuration not stated), the IC50 [10] is reported as 38 nM.

For `COc1ccc(C(C)(O)c2ncnc3ccccc23)cc1` (single isomer, unassigned; (-)), the “growth inhibition (GI)” value [10] was “Active” and the inhibition [16] was “Active”.

With `CC(O)(c1ccc2c(c1)OCO2)c1ncnc2ccccc12` (configuration not stated) the IC50 [10] was 20000 nM.

With `COc1ccc(C(C)(O)c2nc(N3CCC(C)CC3)nc3ccccc23)cc1` (configuration not stated) the IC50 [10] was 19000 nM.

`COc1ccc(C(C)(O)c2nc(C)nc3ccccc23)cc1` (configuration not stated) showed an IC50 [10] of 53 nM.

Work on `CC(O)(c1ccc(F)cc1)c1ncnc2ccccc12` (configuration not stated) yielded an IC50 [10] greater than 25000 nM.

In the case of `COc1ccc(C(C)(O)c2nc(OC)c3ccccc3n2)cc1` (configuration not stated), the IC50 [10] is reported as 2000 nM.

`COc1ccc(C(O)c2ncnc3ccccc23)cc1` (configuration not stated) showed an IC50 [10] greater than 25000 nM.

`CC(O)(c1ccc(C(F)(F)F)cc1)c1ncnc2ccccc12` (configuration not stated) showed an IC50 [10] greater than 25000 nM.

In the case of `COc1ccc(C(C)(O)c2nc(SC)nc3ccccc23)cc1` (configuration not stated), the IC50 [10] is reported as 67 nM.

Molecule `COc1ccc(C(C)(O)c2nc(OC)nc3ccccc23)cc1` (configuration not stated) has an IC50 [10] of 58 nM.

For `COc1ccc(C(C)(O)c2nc(Cl)nc3ccccc23)cc1` (configuration not stated), the IC50 [10] was 27 nM.

Molecule `CCOc1ccc(C(=O)c2ncnc3ccccc23)cc1` has an IC50 [10] greater than 25000 nM.

`CNc1ccc(C(C)(O)c2ncnc3ccccc23)cc1` (configuration not stated) showed an IC50 [10] of 4100 nM.

In the case of `COc1ccc(C(C)(O)c2nc(=O)[nH]c3ccccc23)cc1` (configuration not stated), the IC50 [10] is reported as greater than 25000 nM.

With `COc1ccc(C(C)(O)c2ncnc3ccccc23)cc1` (stereo in doubt; (+)-1a) the “growth inhibition (GI)” value [10] was “Active” and the inhibition [16] was “Active”.

`COc1ccc(C(C)(O)c2nc(-c3cccc(Cl)c3)nc3ccccc23)cc1` (configuration not stated) showed an IC50 [10] of 2100 nM.

Source: ChEMBL document CHEMBL3425417, “Synthesis and Structure-Activity Relationship Study of 1-Phenyl-1-(quinazolin-4-yl)ethanols as Anticancer Agents” (ACS Med Chem Lett, 2015)
